Reference: US20140057895A1, “INDAZOLE- AND PYRROLOPYRIDINE-DERIVATIVE AND PHARMACEUTICAL USE THEREOF” (priority 2011, published 2014)
pEC50, pIC50: −log10 of the molar value.

Legend:
[1] = target: T1, Human 5-HT4 receptor (5-HT4b) (Homo sapiens, UniProt Q13639); assay: Test Example 3: Human 5-HT4 receptor binding assay, membranes of CHO-K1 cells stably expressing 5-HT4b receptors (Table 99); settings: mean value of each group
T1 construct: expressed in transfected cells; membrane preparation
Procedure, shortened: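 Radioligand displacement: [3H]-GR113808 (0.1 nM) bound to CHO-K1 5-HT4b membranes for 30 min at 37 °C in Hepes buffer (50 mM, pH 7.4). Specific binding is total minus that with 30 μM serotonin; filter-bound radioactivity counted, IC50 derived from percent inhibition.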

human 5-HT4b receptor = target: T2, human 5-HT4b receptor (Homo sapiens, UniProt Q13639); assay: Test Example 4: Serotonin 4 (5-HT4) receptor agonist activity assay, cAMP HTRF in CHO cells (Table 100); format: cell-based; settings: mean value; for Emax: CHO, 0.25 h, intrinsic activity, maximal activity of 5-HT defined as 100%, read-out: IA (%); for pEC50: concentration showing 50% of IA
T2 construct: expressed in transfected cells; host or cells: CHO cells (G418 selection)
T2 sequence (Q13639 whole entry): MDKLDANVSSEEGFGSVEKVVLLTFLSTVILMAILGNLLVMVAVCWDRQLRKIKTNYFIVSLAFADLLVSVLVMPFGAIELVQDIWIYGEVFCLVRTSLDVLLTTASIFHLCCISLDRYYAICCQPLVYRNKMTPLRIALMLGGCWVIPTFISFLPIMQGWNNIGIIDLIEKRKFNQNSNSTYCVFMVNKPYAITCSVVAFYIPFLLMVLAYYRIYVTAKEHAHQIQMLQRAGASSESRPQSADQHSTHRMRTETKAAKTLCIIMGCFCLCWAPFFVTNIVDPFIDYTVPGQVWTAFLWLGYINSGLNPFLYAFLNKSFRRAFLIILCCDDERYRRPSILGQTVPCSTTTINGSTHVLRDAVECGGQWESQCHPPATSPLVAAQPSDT
Procedure, shortened: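 Read-out is HTRF cAMP (time-resolved fluorescence 620/665 nm after 1 h RT with cAMP-cryptate and cAMP-d2), from recombinant CHO cells bearing human 5-HT4b treated with compound 15 min at 31° C. in Hanks/HEPES buffer pH 7.4. IA (%) scaled to peak 5-HT effect over 10^−11–10^−7 M; EC50 is concentration giving half that IA.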

T1 sequence (Q13639 whole entry): as above

pIC50 [1] | Emax (human 5-HT4b receptor) [%] | pEC50 (human 5-HT4b receptor) | SMILES
> 7.70 | 109 | 8.62 | CC(C)c1nn(-c2noc(C3CCN(C[C@@H]4CCN(S(C)(=O)=O)C4)CC3)n2)c2c(F)cccc12 [Example 585, 7-fluoro-1-[5-(1-{[(3S)-1-(methylsulfonyl)pyrrolidin-3-yl]methyl}piperidin-4-yl)-1,2,4-oxadiazol-3-yl]-3-(propan-2-yl)-1H-indazole]
> 7.70 | 54 | 7.85 | CC(C)c1nn(-c2noc(C[C@@H]3CCN(C[C@H]4CCCN4C(=O)CO)C3)n2)c2c(F)cccc12 [Example 547, 1-[(2R)-2-{[(3S)-3-({3-[7-fluoro-3-(propan-2-yl)-1H-indazol-1-yl]-1,2,4-oxadiazol-5-yl}methyl)pyrrolidin-1-yl]methyl}pyrrolidin-1-yl]-2-hydroxyethanone]
> 7.70 | 82 | 8.39 | CC(C)c1nn(-c2noc([C@H]3C[C@@H](NCC4CCCO4)C3)n2)c2c(F)cccc12 (relative stereo) [Example 596, cis-3-{3-[7-fluoro-3-(propan-2-yl)-1H-indazol-1-yl]-1,2,4-oxadiazol-5-yl}-N-(tetrahydrofuran-2-ylmethyl)cyclobutanamine]
7.02 | 94 | 7.37 | CC(=O)NCCN(C1CCOCC1)C1CC(c2nc(-n3nc(C(C)C)c4cccc(F)c43)no2)C1 (stereo not drawn) [Example 611, N-{2-[(3-{3-[7-fluoro-3-(propan-2-yl)-1H-indazol-1-yl]-1,2,4-oxadiazol-5-yl}cyclobutyl)(tetrahydro-2H-pyran-4-yl)amino]ethyl}acetamide]
> 7.70 | 73 | 8.19 | CC(C)c1nn(-c2noc(C[C@@H]3CCN(CC4CN(C(=O)CO)C4)C3)n2)c2c(F)cccc12 [Example 548, 1-(3-{[(3S)-3-({3-[7-fluoro-3-(propan-2-yl)-1H-indazol-1-yl]-1,2,4-oxadiazol-5-yl}methyl)pyrrolidin-1-yl]methyl}azetidin-1-yl)-2-hydroxyethanone]
> 7.70 | 103 | 8.04 | CC(C)c1nn(-c2noc(C3CC(NCC4CCOCC4)C3)n2)c2c(F)cccc12 (stereo not drawn) [Example 610, 3-{3-[7-fluoro-3-(propan-2-yl)-1H-indazol-1-yl]-1,2,4-oxadiazol-5-yl}-N-(tetrahydro-2H-pyran-4-ylmethyl)cyclobutanamine]
> 7.70 | 93 | 7.96 | COCCN(C1CCOCC1)[C@H]1C[C@@H](c2nc(-n3nc(C(C)C)c4cccc(F)c43)no2)C1 [Example 614, N-(cis-3-{3-[7-fluoro-3-(propan-2-yl)-1H-indazol-1-yl]-1,2,4-oxadiazol-5-yl}cyclobutyl)-N-(2-methoxyethyl)tetrahydro-2H-pyran-4-amine]
7.69 | 82 | 7.84 | COCCN(CC1CCCO1)C1CC(c2nc(-n3nc(C(C)C)c4cccc(F)c43)no2)C1 (stereo not drawn) [Example 612, 3-{3-[7-fluoro-3-(propan-2-yl)-1H-indazol-1-yl]-1,2,4-oxadiazol-5-yl}-N-(2-methoxyethyl)-N-(tetrahydrofuran-2-ylmethyl)cyclobutanamine]

Further lines, the molecule ahead of its results:

SMILES | pIC50 [1] | Emax (human 5-HT4b receptor) [%] | pEC50 (human 5-HT4b receptor)
COCC(=O)N1CCC(C)(N2CCC(c3nc(-n4nc(C(C)C)c5cccc(F)c54)no3)CC2)CC1 [Example 490, 1-(4-{3-[7-fluoro-3-(propan-2-yl)-1H-indazol-1-yl]-1,2,4-oxadiazol-5-yl}-4′-methyl-1,4′-bipiperidin-1′-yl)-2-methoxyethanone] | > 7.70 | 111 | 8.80
CC(C)c1nn(-c2noc(C[C@H]3CCN(C[C@H]4CCCN4S(C)(=O)=O)C3)n2)c2c(F)cccc12 [Example 500, 7-fluoro-1-(5-{[(3R)-1-{[(2R)-1-(methylsulfonyl)pyrrolidin-2-yl]methyl}pyrrolidin-3-yl]methyl}-1,2,4-oxadiazol-3-yl)-3-(propan-2-yl)-1H-indazole] | > 7.70 | 90 | 7.84
CC(C)c1nn(-c2noc(C[C@H]3CCN(C[C@@H]4CCCN4C(=O)CO)C3)n2)c2c(F)cccc12 [Example 540, 1-[(2S)-2-{[(3R)-3-({3-[7-fluoro-3-(propan-2-yl)-1H-indazol-1-yl]-1,2,4-oxadiazol-5-yl}methyl)pyrrolidin-1-yl]methyl}pyrrolidin-1-yl]-2-hydroxyethanone] | 7.11 | 106 | 7.82
CC(C)c1nn(-c2noc(C[C@H]3CCN(C4CCN(C(=O)CO)CC4)C3)n2)c2c(F)cccc12 [Example 539, 1-{4-[(3R)-3-({3-[7-fluoro-3-(propan-2-yl)-1H-indazol-1-yl]-1,2,4-oxadiazol-5-yl}methyl)pyrrolidin-1-yl]piperidin-1-yl}-2-hydroxyethanone] | > 7.70 | 75 | 8.59
CC(C)c1nn(-c2noc(C[C@@H]3CCN(C4CCN(C(=O)CO)CC4)C3)n2)c2c(F)cccc12 [Example 545, 1-{4-[(3S)-3-({3-[7-fluoro-3-(propan-2-yl)-1H-indazol-1-yl]-1,2,4-oxadiazol-5-yl}methyl)pyrrolidin-1-yl]piperidin-1-yl}-2-hydroxyethanone] | > 7.70 | 60 | 8.26
CC(C)c1nn(-c2noc(C[C@@H]3CCN(C[C@H]4CCN(S(C)(=O)=O)C4)C3)n2)c2c(F)cccc12 [Example 518, 7-fluoro-1-(5-{[(3S)-1-{[(3R)-1-(methylsulfonyl)pyrrolidin-3-yl]methyl}pyrrolidin-3-yl]methyl}-1,2,4-oxadiazol-3-yl)-3-(propan-2-yl)-1H-indazole] | > 7.70 | 59 | 8.26
CC(=O)N1CC(CN2CC[C@@H](Cc3nc(-n4nc(C(C)C)c5cccc(F)c54)no3)C2)C1 [Example 513, 1-(3-{[(3S)-3-({3-[7-fluoro-3-(propan-2-yl)-1H-indazol-1-yl]-1,2,4-oxadiazol-5-yl}methyl)pyrrolidin-1-yl]methyl}azetidin-1-yl)ethanone] | > 7.70 | 81 | 7.99
CC(=O)N1CCC[C@H]1CN1CC[C@H](Cc2nc(-n3nc(C(C)C)c4cccc(F)c43)no2)C1 [Example 497, 1-[(2S)-2-{[(3R)-3-({3-[7-fluoro-3-(propan-2-yl)-1H-indazol-1-yl]-1,2,4-oxadiazol-5-yl}methyl)pyrrolidin-1-yl]methyl}pyrrolidin-1-yl]ethanone] | 7.12 | 88 | 8.24
CC(C)c1nn(-c2noc(C[C@@H]3CCN(C[C@@H]4CCCN4S(C)(=O)=O)C3)n2)c2c(F)cccc12 [Example 510, 7-fluoro-1-(5-{[(3S)-1-{[(2S)-1-(methylsulfonyl)pyrrolidin-2-yl]methyl}pyrrolidin-3-yl]methyl}-1,2,4-oxadiazol-3-yl)-3-(propan-2-yl)-1H-indazole] | > 7.70 | 46 | 8.57
CC(C)c1nn(-c2noc(C[C@@H]3CCN(C[C@@H]4CCCN4C(=O)CO)C3)n2)c2c(F)cccc12 [Example 546, 1-[(2S)-2-{[(3S)-3-({3-[7-fluoro-3-(propan-2-yl)-1H-indazol-1-yl]-1,2,4-oxadiazol-5-yl}methyl)pyrrolidin-1-yl]methyl}pyrrolidin-1-yl]-2-hydroxyethanone] | > 7.70 | 63 | 7.70
CCCc1nn(-c2noc(C3CCN(C4CCN(C(=O)CO)CC4)CC3)n2)c2c(F)cccc12 [Example 524, 1-{4-[3-(7-fluoro-3-propyl-1H-indazol-1-yl)-1,2,4-oxadiazol-5-yl]-1,4′-bipiperidin-1′-yl}-2-hydroxyethanone] | > 7.70 | 84 | 8.37
Cc1nn(-c2noc(C3CCN(C4CCN(C(=O)CO)CC4)CC3)n2)c2c(F)cccc12 [Example 525, 1-{4-[3-(7-fluoro-3-methyl-1H-indazol-1-yl)-1,2,4-oxadiazol-5-yl]-1,4′-bipiperidin-1′-yl}-2-hydroxyethanone] | > 7.70 | 86 | 7.74
CC(C)c1nn(-c2noc(C3CCN(C4(C)CCN(S(C)(=O)=O)CC4)CC3)n2)c2c(F)cccc12 [Example 488, 4-{3-[7-fluoro-3-(propan-2-yl)-1H-indazol-1-yl]-1,2,4-oxadiazol-5-yl}-4′-methyl-1′-(methylsulfonyl)-1,4′-bipiperidine] | > 7.70 | 106 | 8.54
CC(C)c1nn(-c2noc(C[C@H]3CCN(C[C@@H]4CCN(S(C)(=O)=O)C4)C3)n2)c2c(F)cccc12 [Example 504, 7-fluoro-1-(5-{[(3R)-1-{[(3S)-1-(methylsulfonyl)pyrrolidin-3-yl]methyl}pyrrolidin-3-yl]methyl}-1,2,4-oxadiazol-3-yl)-3-(propan-2-yl)-1H-indazole] | > 7.70 | 47 | 8.41
CC(C)c1nn(-c2noc(C[C@@H]3CCN(CC4CN(S(C)(=O)=O)C4)C3)n2)c2c(F)cccc12 [Example 514, 7-fluoro-1-(5-{[(3S)-1-{[1-(methylsulfonyl)azetidin-3-yl]methyl}pyrrolidin-3-yl]methyl}-1,2,4-oxadiazol-3-yl)-3-(propan-2-yl)-1H-indazole] | > 7.70 | 70 | 7.92
CC(=O)N1CCC(C)(N2CCC(c3nc(-n4nc(C(C)C)c5cccc(F)c54)no3)CC2)CC1 [Example 487, 1-(4-{3-[7-fluoro-3-(propan-2-yl)-1H-indazol-1-yl]-1,2,4-oxadiazol-5-yl}-4′-methyl-1,4′-bipiperidin-1′-yl)ethanone] | > 7.70 | 70 | 8.49
